Experiments:
Type in all cases: in vivo
[1] = tested on: Amaranthus retroflexus (AMARE); assay: Pre-emergence herbicidal action; conditions: 320 g/ha, visual scoring after about 3 weeks vs untreated controls, 100% = plants have died
Description: (§1) The abbreviations used here have the following meanings: • ABUTH Abutilon theophrasti • AMARE Amaranlhus retroflexus • CYPES Cyperus serotinus • ECHCGEchinocloa crus galli • LOLRI Lolium rigidum Gaudin • PHBPU Pharbitis purpurcum • SETVI Setaria viridis • VERPE Veronica persica • ALOMY Alopccurus myosuroides • AVEFA Avena fatua • DIGSA Digitaria sanguinalis • LOLMU Lolium multiflorum • MATIN Matricaria inodora • POLCO Polygonum convolvulus • STEME Stellaria media • VIOTR Viola tricolor
(§2) Seeds of monocotyledonous and dicotyledonous weed plants and crop plants are placed in plastic or organic plant pots and covered with soil. The compounds of the invention, formulated in the form of wettable powders (WP) or as emulsion concentrates (EC), are then applied onto the surface of the covering soil as aqueous suspension or emulsion with addition of 0.5% additive at a water application rate of 600 l/ha (converted). After the treatment, the pots are placed in a greenhouse and kept under good growth conditions for the trial plants. After about 3 weeks, the effect of the preparations is scored visually in comparison with untreated controls as percentages. For example, 100% activity=the plants have died, 0% activity=like control plants.

Avena fatua (AVEFA) [2] = assay: Pre-emergence herbicidal action; conditions: 320 g/ha, visual scoring after about 3 weeks vs untreated controls, 100% = plants have died
Description: as §1, §2

[3] = tested on: Abutilon theophrasti (ABUTH); assay: Pre-emergence herbicidal action; conditions: 320 g/ha, visual scoring after about 3 weeks vs untreated controls, 100% = plants have died
Description: as §1, §2

[4] = tested on: Cyperus serotinus (CYPES); assay: Pre-emergence herbicidal action; conditions: 320 g/ha, visual scoring after about 3 weeks vs untreated controls, 100% = plants have died
Description: as §1, §2

[5] = tested on: Lolium multiflorum (LOLMU); assay: Pre-emergence herbicidal action; conditions: 320 g/ha, visual scoring after about 3 weeks vs untreated controls, 100% = plants have died
Description: as §1, §2

[6] = tested on: Pharbitis purpurea (PHBPU); assay: Pre-emergence herbicidal action; conditions: 320 g/ha, visual scoring after about 3 weeks vs untreated controls, 100% = plants have died
Description: as §1, §2

Veronica persica (VERPE) [7] = assay: Pre-emergence herbicidal action; conditions: 320 g/ha, visual scoring after about 3 weeks vs untreated controls, 100% = plants have died
Description: as §1, §2

[8] = tested on: harmful plants such as Alopecurus myosuroides, Amaranthus retroflexus, Avena fatua, Echinochloa crus-galli, Matricaria inodora, Pharbitis purpurea, Polygonum …; assay: Pre-emergence herbicidal action, summary in text; conditions: pre-emergence treatment
Description: as §2
At the same time, some compounds according to the invention leave graminaceous crops such as barley, wheat, rye, millet/sorghum, maize, rice or sugarcane virtually undamaged when applied by the pre-emergence method, even at high active compound dosages. Some compounds are additionally also benign to dicotyledonous crops such as soya, cotton, oilseed rape or sugarbeet.

[9] = tested on: Polygonum convolvulus (POLCO); assay: Post-emergence herbicidal action; conditions: 80 g of a.i./ha, comparative test
Description: (§3) Seeds of monocotyledonous and dicotyledonous weeds and crop plants are placed in sandy loam in plastic or organic plant pots, covered with soil and cultivated in a greenhouse under controlled growth conditions. 2 to 3 weeks after sowing, the test plants are treated at the one-leaf stage. The compounds of the invention, formulated in the form of wettable powders (WP) or as emulsion concentrates (EC), are then sprayed onto the green parts of the plants as aqueous suspension or emulsion with addition of 0.5% additive at a water application rate of 600 l/ha (converted). After the test plants have been kept in the greenhouse under optimum growth conditions for about 3 weeks, the activity of the preparations is rated visually in comparison to untreated controls. For example, 100% activity=the plants have died, 0% activity=like control plants.
as §1
(§4) The compounds according to the invention were tested by the post-emergence and pre-emergence methods under the conditions described above for comparative purposes with the structurally closest compounds known from WO 2005/089551 A1 (D1).

Avena fatua (AVEFA) [10] = assay: Post-emergence herbicidal action
Description: as §3, §1, §4

[11] = tested on: Abutilon theophrasti (ABUTH); assay: Post-emergence herbicidal action
Description: as §3, §1, §4

[12] = tested on: Matricaria inodora (MATIN); assay: Post-emergence herbicidal action; conditions: for Herbicidal action against MATIN: 80 g of a.i./ha, comparative test
Description: as §3, §1, §4

[13] = tested on: Alopecurus myosuroides (ALOMY); assay: Post-emergence herbicidal action; conditions: for Herbicidal action against ALOMY: 80 g of a.i./ha, comparative test; for Post-emergence action ALOMY: 320 g/ha, visual rating after about 3 weeks vs untreated controls, 100% = plants have died
Description: as §3, §1, §4

[14] = tested on: Lolium multiflorum (LOLMU); assay: Post-emergence herbicidal action
Description: as §3, §1, §4

[15] = tested on: Echinochloa crus-galli (ECHCG); assay: Post-emergence herbicidal action; conditions: for Herbicidal action against ECHCG: 80 g of a.i./ha, comparative test; for Post-emergence action ECHCG: 320 g/ha, visual rating after about 3 weeks vs untreated controls, 100% = plants have died
Description: as §3, §1, §4

Setaria viridis (SETVI) [16] = assay: Post-emergence herbicidal action; conditions: for Herbicidal action against SETVI: 80 g of a.i./ha, comparative test; for Post-emergence action SETVI: 320 g/ha, visual rating after about 3 weeks vs untreated controls, 100% = plants have died
Description: as §3, §1, §4

Stellaria media (STEME) [17] = assay: Post-emergence herbicidal action
Description: as §3, §1, §4

[18] = tested on: Amaranthus retroflexus (AMARE); assay: Post-emergence herbicidal action; conditions: 320 g/ha, visual rating after about 3 weeks vs untreated controls, 100% = plants have died
Description: as §3, §1

[19] = tested on: Pharbitis purpurea (PHBPU); assay: Post-emergence herbicidal action; conditions: 320 g/ha, visual rating after about 3 weeks vs untreated controls, 100% = plants have died
Description: as §3, §1

Veronica persica (VERPE) [20] = assay: Post-emergence herbicidal action; conditions: 320 g/ha, visual rating after about 3 weeks vs untreated controls, 100% = plants have died
Description: as §3, §1

Viola tricolor (VIOTR) [21] = assay: Post-emergence herbicidal action; conditions: 320 g/ha, visual rating after about 3 weeks vs untreated controls, 100% = plants have died
Description: as §3, §1

[22] = tested on: Polygonum convolvulus (POLCO); assay: Pre-emergence herbicidal action; conditions: for Herbicidal action against POLCO: 80 g of a.i./ha, comparative test; for Pre-emergence action POLCO: 320 g/ha, visual scoring after about 3 weeks vs untreated controls, 100% = plants have died
Description: as §1, §2, §4

[23] = tested on: Matricaria inodora (MATIN); assay: Pre-emergence herbicidal action; conditions: for Herbicidal action against MATIN: 80 g of a.i./ha, comparative test; for Pre-emergence action MATIN: 320 g/ha, visual scoring after about 3 weeks vs untreated controls, 100% = plants have died
Description: as §1, §2, §4

[24] = tested on: Alopecurus myosuroides (ALOMY); assay: Pre-emergence herbicidal action; conditions: for Herbicidal action against ALOMY: 80 g of a.i./ha, comparative test; for Pre-emergence action ALOMY: 320 g/ha, visual scoring after about 3 weeks vs untreated controls, 100% = plants have died
Description: as §1, §2, §4

[25] = tested on: Echinochloa crus-galli (ECHCG); assay: Pre-emergence herbicidal action; conditions: for Herbicidal action against ECHCG: 80 g of a.i./ha, comparative test; for Pre-emergence action ECHCG: 320 g/ha, visual scoring after about 3 weeks vs untreated controls, 100% = plants have died
Description: as §1, §2, §4

Setaria viridis (SETVI) [26] = assay: Pre-emergence herbicidal action; conditions: for Herbicidal action against SETVI: 80 g of a.i./ha, comparative test; for Pre-emergence action SETVI: 320 g/ha, visual scoring after about 3 weeks vs untreated controls, 100% = plants have died
Description: as §1, §2, §4

Viola tricolor (VIOTR) [27] = assay: Pre-emergence herbicidal action; conditions: for Herbicidal action against VIOTR: 80 g of a.i./ha, comparative test; for Pre-emergence action VIOTR: 320 g/ha, visual scoring after about 3 weeks vs untreated controls, 100% = plants have died
Description: as §1, §2, §4

Stellaria media (STEME) [28] = assay: Pre-emergence herbicidal action; conditions: for Herbicidal action against STEME: 80 g of a.i./ha, comparative test; for Pre-emergence action STEME: 320 g/ha, visual scoring after about 3 weeks vs untreated controls, 100% = plants have died
Description: as §1, §2, §4

[29] = tested on: harmful plants such as Abutilon theophrasti, Alopecurus myosuroides, Amaranthus retroflexus, Avena fatua, Echinochloa crus-galli, Matricaria inodora, Pharbitis …; assay: Post-emergence herbicidal action, summary in text; conditions: post-emergence treatment
Description: as §3
In this case, for example, in the post-emergence process, the compounds No. 1-001 and 111-001 have very good herbicidal activity (80% to 100% herbicidal action) against harmful plants such as Abutilon theophrasti, Alopecurus myosuroides, Amaranthus retroflexus, Avena fatua, Echinochloa crus-galli, Matricaria inodora, Pharbitis purpurea, Setaria viridis, Stellaria media, Veronica persica and Viola tricolor at an application rate of 0.32 kg of active substance or less per hectare. At the same time, some compounds according to the invention leave graminaceous crops such as barley, wheat, rye, millet/sorghum, maize, rice or sugarcane virtually undamaged when applied by the post-emergence method, even at high active compound dosages. Some substances are additionally also benign to dicotyledonous crops such as soya, cotton, oilseed rape or sugarbeet.

[30] = tested on: Lolium rigidum Gaudin (LOLRI); assay: Pre-emergence herbicidal action; conditions: 320 g/ha, visual scoring after about 3 weeks vs untreated controls, 100% = plants have died
Description: as §1, §2

[31] = tested on: Digitaria sanguinalis (DIGSA); assay: Pre-emergence herbicidal action; conditions: 320 g/ha, visual scoring after about 3 weeks vs untreated controls, 100% = plants have died
Description: as §1, §2

[32] = tested on: Lolium rigidum Gaudin (LOLRI); assay: Post-emergence herbicidal action; conditions: 320 g/ha, visual rating after about 3 weeks vs untreated controls, 100% = plants have died
Description: as §3, §1

[33] = 80 g of a.i./ha, comparative test
[34] = 320 g/ha, visual rating after about 3 weeks vs untreated controls, 100% = plants have died

FC(F)(F)c1cnn(-c2cc(C3CC3)nc(Oc3ccnc(C(F)(F)F)c3)n2)c1 [Example I-001, 4-cyclopropyl-6-[4-(trifluoromethyl)-1H-pyrazol-1-yl]-2-{[2-(trifluoromethyl)pyridin-4-yl]oxy}pyrimidine]
100%: Pre-emergence action AVEFA (Avena fatua (AVEFA) [2]) | Pre-emergence action LOLMU [5] | Pre-emergence action PHBPU [6] | Pre-emergence action VERPE (Veronica persica (VERPE) [7]) | Herbicidal action against POLCO [9] | Post-emergence action ABUTH [11, 34] | Post-emergence action LOLMU [14, 34] | Post-emergence action SETVI (Setaria viridis (SETVI) [16]) | Post-emergence action STEME (Stellaria media (STEME) [17]; [34]) | Post-emergence action VERPE (Veronica persica (VERPE) [20]) | Post-emergence action VIOTR (Viola tricolor (VIOTR) [21]) | Herbicidal action against POLCO [22] | Pre-emergence action POLCO [22] | Herbicidal action against MATIN [23] | Pre-emergence action MATIN [23] | Herbicidal action against ALOMY [24] | Pre-emergence action ALOMY [24] | Herbicidal action against ECHCG [25] | Pre-emergence action ECHCG [25] | Herbicidal action against SETVI (Setaria viridis (SETVI) [26]) | Pre-emergence action SETVI (Setaria viridis (SETVI) [26]) | Herbicidal action against VIOTR (Viola tricolor (VIOTR) [27]) | Pre-emergence action VIOTR (Viola tricolor (VIOTR) [27]) | Herbicidal action against STEME (Stellaria media (STEME) [28]) | Pre-emergence action STEME (Stellaria media (STEME) [28])
80%: Pre-emergence action CYPES [4] | Herbicidal action against AVEFA (Avena fatua (AVEFA) [10]; [33]) | Herbicidal action against ALOMY [13]
90%: Pre-emergence action AMARE [1] | Pre-emergence action ABUTH [3] | Post-emergence action AVEFA (Avena fatua (AVEFA) [10]; [34]) | Herbicidal action against ABUTH [11, 33] | Herbicidal action against MATIN [12] | Post-emergence action MATIN [12, 34] | Post-emergence action ALOMY [13] | Herbicidal action against LOLMU [14, 33] | Herbicidal action against ECHCG [15] | Post-emergence action ECHCG [15] | Herbicidal action against SETVI (Setaria viridis (SETVI) [16]) | Herbicidal action against STEME (Stellaria media (STEME) [17]; [33]) | Post-emergence action AMARE [18] | Post-emergence action PHBPU [19]
good herbicidal action: herbicidal action against harmful plants (in words) [8] | herbicidal action against harmful plants (in words) [29]

FC(F)Oc1cc(Oc2nc(C3CC3)cc(-n3cc(C(F)(F)F)cn3)n2)ccn1 [Example I-003]
90%: Pre-emergence action AVEFA (Avena fatua (AVEFA) [2]) | Post-emergence action ALOMY [13] | Post-emergence action ECHCG [15] | Post-emergence action AMARE [18] | Post-emergence action LOLRI [32] | Post-emergence action VERPE (Veronica persica (VERPE) [20]) | Post-emergence action VIOTR (Viola tricolor (VIOTR) [21]) | Pre-emergence action POLCO [22] | Herbicidal action against MATIN [23] | Pre-emergence action MATIN [23] | Pre-emergence action ECHCG [25] | Herbicidal action against STEME (Stellaria media (STEME) [28])
80%: Herbicidal action against ECHCG [15] | Post-emergence action SETVI (Setaria viridis (SETVI) [16]) | Post-emergence action PHBPU [19]
30%: Herbicidal action against ECHCG [25]
20%: Herbicidal action against POLCO [22]
60%: Herbicidal action against MATIN [12] | Herbicidal action against ALOMY [13] | Herbicidal action against SETVI (Setaria viridis (SETVI) [16]) | Herbicidal action against ALOMY [24]
good herbicidal action: herbicidal action against harmful plants (in words) [8]
100%: Pre-emergence action AMARE [1] | Pre-emergence action LOLRI [30] | Pre-emergence action PHBPU [6] | Pre-emergence action DIGSA [31] | Pre-emergence action VERPE (Veronica persica (VERPE) [7]) | Pre-emergence action ALOMY [24] | Herbicidal action against SETVI (Setaria viridis (SETVI) [26]) | Pre-emergence action SETVI (Setaria viridis (SETVI) [26]) | Herbicidal action against VIOTR (Viola tricolor (VIOTR) [27]) | Pre-emergence action VIOTR (Viola tricolor (VIOTR) [27]) | Pre-emergence action STEME (Stellaria media (STEME) [28])

Reference: patent US12509445B2, “Herbicidally active 4-cyclopropyl-6-[4-(trifluormethyl)pyrazol-1-yl)]pyrimidines” (Bayer Aktiengesellschaft, priority 2019, dated 2025)
